The target in series [1] is T1, Prostaglandin G/H synthase 1 (Ovis aries, UniProt P05979).
T1 sequence (P05979 whole entry): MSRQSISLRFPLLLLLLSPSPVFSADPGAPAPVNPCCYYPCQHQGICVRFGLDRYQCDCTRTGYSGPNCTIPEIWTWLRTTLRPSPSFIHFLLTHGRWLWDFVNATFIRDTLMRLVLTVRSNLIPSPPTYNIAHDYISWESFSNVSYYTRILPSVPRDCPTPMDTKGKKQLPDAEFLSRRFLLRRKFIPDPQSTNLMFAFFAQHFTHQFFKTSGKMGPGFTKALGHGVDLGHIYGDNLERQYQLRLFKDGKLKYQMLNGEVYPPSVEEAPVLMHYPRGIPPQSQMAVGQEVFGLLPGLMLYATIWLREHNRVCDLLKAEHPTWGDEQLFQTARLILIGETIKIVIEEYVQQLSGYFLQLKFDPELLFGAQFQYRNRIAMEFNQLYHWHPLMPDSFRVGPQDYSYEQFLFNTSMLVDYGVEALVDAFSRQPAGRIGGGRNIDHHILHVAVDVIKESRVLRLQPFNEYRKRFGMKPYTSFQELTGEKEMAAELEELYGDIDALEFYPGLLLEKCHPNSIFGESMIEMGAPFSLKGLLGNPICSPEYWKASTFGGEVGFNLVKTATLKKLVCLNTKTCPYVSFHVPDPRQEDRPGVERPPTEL
As to the kind of experiment: Inhibition of ovine COX-1 by EIA method.

Series [2] deals with Rattus norvegicus. Kind of series: Anti-inflammatory activity in Carrageenan-induced paw edema in Wistar albino rat assessed as inhibition of paw edema measured after 3 hr relative to control. Format: functional. Set-up: Activity: scale not given: the % may be the effect or the level left. For orientation: In the carrageenan paw model, swelling and tenderness develop within hours.

Series [3] relates to RAW264.7. As to the kind of experiment: Anti-inflammatory activity in mouse RAW264.7 cells assessed as LPS-induced reduction in decreased […] level of IL-1beta measured after 24 hrs. Type of series: functional.
Series [4] deals with T1, Prostaglandin G/H synthase 1. As to the kind of experiment: Inhibition of ovine COX-1 at 1 uM.
Series [5] concerns the target T2, Prostaglandin G/H synthase 2 (Homo sapiens, UniProt P35354).
T2 sequence (P35354 whole entry): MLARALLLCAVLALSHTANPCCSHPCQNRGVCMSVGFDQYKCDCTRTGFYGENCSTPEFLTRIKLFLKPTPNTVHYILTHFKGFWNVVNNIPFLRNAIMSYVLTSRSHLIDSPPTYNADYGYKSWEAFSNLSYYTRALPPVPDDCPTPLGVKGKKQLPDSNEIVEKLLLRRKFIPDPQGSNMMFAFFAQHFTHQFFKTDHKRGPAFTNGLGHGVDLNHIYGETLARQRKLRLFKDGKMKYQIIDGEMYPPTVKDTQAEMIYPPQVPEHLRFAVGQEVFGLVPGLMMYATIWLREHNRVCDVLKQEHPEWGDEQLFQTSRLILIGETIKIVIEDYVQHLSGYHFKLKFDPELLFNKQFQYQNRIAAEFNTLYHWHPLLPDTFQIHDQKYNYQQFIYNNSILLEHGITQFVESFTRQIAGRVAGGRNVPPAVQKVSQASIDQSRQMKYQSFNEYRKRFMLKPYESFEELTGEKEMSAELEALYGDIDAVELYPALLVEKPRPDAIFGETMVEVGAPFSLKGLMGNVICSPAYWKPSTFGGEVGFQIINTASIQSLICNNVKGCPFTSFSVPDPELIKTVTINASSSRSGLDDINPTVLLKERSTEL
As to the kind of experiment: Inhibition of human recombinant COX-2 at 1 uM.

The target of series [6] is T3, Polyunsaturated fatty acid lipoxygenase ALOX15 (Homo sapiens, UniProt P16050).
T3 sequence (P16050 whole entry): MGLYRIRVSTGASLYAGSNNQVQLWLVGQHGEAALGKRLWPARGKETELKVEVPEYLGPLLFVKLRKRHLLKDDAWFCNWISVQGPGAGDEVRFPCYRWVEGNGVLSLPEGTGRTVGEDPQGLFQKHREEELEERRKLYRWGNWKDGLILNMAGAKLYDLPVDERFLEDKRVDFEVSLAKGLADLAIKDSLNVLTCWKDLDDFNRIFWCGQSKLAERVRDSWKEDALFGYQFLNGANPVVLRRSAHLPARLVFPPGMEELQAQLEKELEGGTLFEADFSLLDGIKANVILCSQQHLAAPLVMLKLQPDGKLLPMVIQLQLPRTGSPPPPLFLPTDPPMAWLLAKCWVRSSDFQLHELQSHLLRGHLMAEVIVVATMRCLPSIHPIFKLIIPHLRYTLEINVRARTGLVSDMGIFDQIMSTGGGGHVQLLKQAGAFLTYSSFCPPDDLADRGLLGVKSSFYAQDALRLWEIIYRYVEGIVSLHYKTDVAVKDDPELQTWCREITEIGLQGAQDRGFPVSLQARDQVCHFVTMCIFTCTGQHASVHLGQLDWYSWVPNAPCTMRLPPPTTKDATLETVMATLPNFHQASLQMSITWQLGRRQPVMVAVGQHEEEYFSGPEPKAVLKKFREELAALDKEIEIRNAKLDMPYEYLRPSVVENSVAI
Kind of series: Inhibition of LOX (unknown origin) at 1 uM.

The test system of series [7] is RAW264.7. Kind of series: Anti-inflammatory activity in mouse RAW264.7 cells assessed as inhibition of LPS-induced IL-6 production incubated for 1 hr by EIA relative to control. Format: functional.
The subject of series [8] is RAW264.7. Kind of series: Anti-inflammatory activity in mouse RAW264.7 cells assessed as inhibition of LPS-induced TNFalpha production incubated for 1 hr by EIA relative to control. Format: functional.
The test system of series [9] is Rattus norvegicus. Kind of series: Anti-inflammatory activity in Carrageenan-induced paw edema in Wistar albino rat assessed as inhibition of paw edema measured after 1 hr relative to control. Type of series: functional.
Series [10] concerns the target T2, Prostaglandin G/H synthase 2. As to the kind of experiment: Inhibition of COX-2 (unknown origin) at 0.1 uM.
Series [11] relates to Rattus norvegicus. Kind of series: Anti-inflammatory activity in Carrageenan-induced paw edema in Wistar albino rat assessed as inhibition of paw edema measured after 6 hr relative to control. Type of series: functional.
Series [12] concerns RAW264.7. As to the kind of experiment: Anti-inflammatory activity in mouse RAW264.7 cells assessed as decreased production of LPS-induced TNFalpha production. Format: functional. The conditions noted are these: read-out: ED50 (the source's name).
Series [13] relates to RAW264.7. As to the kind of experiment: Anti-inflammatory activity in mouse RAW264.7 cells assessed as decreased production of LPS-induced IL-6 production. Type of series: functional.
Series [14] concerns RAW264.7. As to the kind of experiment: Anti-inflammatory activity in mouse RAW264.7 cells assessed as decreased production of LPS-induced IL-1beta production. Format: functional.
Series [15] relates to Mus musculus. As to the kind of experiment: Anti-inflammatory activity against Carrageenan-induced paw edema in mouse model assessed as reduction in volume of edema at 100 mg/kg measured after 24 hrs relative to control. Type of series: functional. Further details: scale not given: the % may be the effect or the level left.
Series [16] deals with RAW264.7. As to the kind of experiment: Anti-inflammatory activity in mouse RAW264.7 cells assessed as inhibition of LPS-induced TNFalpha production measured after 24 hrs by EIA method relative to control. Set-up: scale not given: the % may be the effect or the level left. Type of series: functional.
The nature of series [17]: Cytotoxicity against mouse RAW264.7 cells assessed as decreased cell viability measured after 24 hrs by MTT assay. Type of series: toxicity, cell-based.
The test system of series [18] is RAW264.7. Kind of series: Anti-inflammatory activity in mouse RAW264.7 cells assessed as inhibition of LPS-induced reduction in TNFalpha production. Type of series: functional, cell-based.
The next series has as its system BV-2. Kind of series: Antineuroinflammatory activity against mouse BV-2 cells assessed as inhibition of LPS-induced NO production by Griess assay relative to control. Type of series: functional. Further details: scale not given: the % may be the effect or the level left. Background: The Griess reaction detects nitrite, a stable product of nitric oxide.
The subject of series [19] is Rattus norvegicus. As to the kind of experiment: Anti-inflammatory activity against formalin-induced foot paw edema in PO dosed rat at 10 mg/kg assessed as inhibition of edema measured after 4 hr relative to control. Type of series: functional.
Series [20] relates to Rattus norvegicus. Kind of series: Anti-inflammatory activity against Carrageenan-induced paw edema in PO dosed Wistar albino rat assessed as inhibition of edema measured after 3 hr relative to control. Format: functional. Set-up: scale not given: the % may be the effect or the level left.
The nature of series [21]: Anti-inflammatory activity assessed using bovine serum albumin/egg albumin proteins assessed as protein denaturation measured at 95 degC for 20 mins by measuring turbidity by UV-Vis spectrophotometer. Format: functional.
For a further series, the system named is Erythrocyte. Kind of series: Anti-inflammatory activity in human red blood cells assessed as stabilization of cell membrane. Format: functional, cell-based.
For series [22], the system named is Rattus norvegicus. As to the kind of experiment: Anti-inflammatory activity in Carrageenan-induced rat paw edema in Wistar rat assessed as reduction in inhibition of edema measured after 4 hrs relative to control. Set-up: scale not given: the % may be the effect or the level left. Format: functional.
The test system of series [23] is Rattus norvegicus. As to the kind of experiment: Anti-inflammatory activity in Carrageenan-induced paw edema in PO dosed rat model at 30 mg/kg measured after 4 hrs relative to control. Format: functional.
The subject of series [24] is Mus musculus. Kind of series: Anti-inflammatory activity against Carrageenan-induced paw edema in mouse model assessed as reduction of edema at 50 mg/kg measured after 4 hrs relative to control. Type of series: functional. Set-up: scale not given: the % may be the effect or the level left.
A further series relates to THP-1. As to the kind of experiment: Anti-inflammatory activity in human THP-1 cells assessed as inhibition in IL-1beta release at 30 uM relative to control. Type of series: functional. Set-up: scale not given: the % may be the effect or the level left.

Converted amounts (≈) assume the structure as drawn.

A word on the IC50: it is the midpoint of a concentration-inhibition curve. In general, CC50 refers to the concentration giving 50% cytotoxicity. A word on the inhibition in vivo: it is the change of the read-out against control, counted positive when it falls.

On to `COc1c2occc2c(OC)c2c(C)c(/C(=N/c3cc(N4CCNCC4)nc(N4CCNCC4)n3)N3CCNCC3)oc12`, for which the IC50 in series [1] was found to be 4.15 µM. Further, the Activity worked out at 68% in the series with Rattus norvegicus [2] and 30 pg/mL in the series with RAW264.7 [3].
In the case of `COc1ccc(-c2nc3c(C(N)=O)cccc3[nH]2)cc1`, the figures for the concentration for half-maximal inhibition (IC50) in series [4], in [5] and in series [6] were 0.98 µM, 11.6 µM and 9.51 µM, respectively. In addition, the “inhibition (INH)” value in the series with RAW264.7 [7] and in the series on RAW264.7 [8] was 91% in each case.
As for `COc1ccc(C2=NNC(S)C2N(CN2C(=O)/C(=C\c3nnc(-c4ccc(-c5ccc(OC)cc5)cc4)s3)c3ccccc32)C(=O)c2ccccc2)cc1` (stereo not drawn), the “inhibition (INH)” value in the series with Rattus norvegicus [9] worked out at 50%; with Rattus norvegicus [2], 52.63%; in the series with Rattus norvegicus [11], 57.14%. Moreover, the IC50 in [10] is 53.1 µM. Also, the EC50 in the series on RAW264.7 [12] was 0.0559 µg/mL (≈ 0.0744 µM). Besides, the Activity turned out to be 102.1 ng/mL in the series with RAW264.7 [13] and 35.1 ng/mL in the series on RAW264.7 [14].
Take `c1ccc(N2CCN(c3cncc(-c4nc5ccccc5[nH]4)n3)CC2)cc1`: the Activity in the series with Mus musculus [15] worked out at 54.31%.
Consider `CCc1ccc(C/C=C2\CCOc3cc(OC)cc(OC)c3C2=O)cc1`, for which the Activity with RAW264.7 [16] came to 96.4%; in the series with BV-2 it was 87.9%. Also, the CC50 at 24 h in series [17] came out at 43.6 µM. Also, in the series on RAW264.7 [18], the IC50 worked out at 5.2 µM.
Turning to `O=C([O-])Cc1ccccc1Nc1c(Cl)cccc1Cl.[Na+]` [DICLOFENAC SODIUM], the inhibition in vivo at 10 mg/kg with Rattus norvegicus [19] turned out to be 92.9%. For the same molecule, the Activity in the series on Rattus norvegicus [20] is 60.82%; with Rattus norvegicus [22], 78.05%; in the series on Mus musculus [24], 76.25%. For the same molecule, the IC50 in series [21] is 54.65 µg/mL. Further, the EC50 in the series on Erythrocyte is 11.7 µg/mL. In the series with Rattus norvegicus [23], this molecule gave an inhibition in vivo at 30 mg/kg of 93%.
Turning to `c1cc2[nH]c(-c3cscn3)nc2cn1`, the Activity with THP-1 stood at 40%.

The values above are taken from ChEMBL document CHEMBL5233249, “Recent advancements in the development of heterocyclic anti-inflammatory agents” (Eur J Med Chem, 2020).
